Each structure is given as a SMILES string. Like-named read-outs stand apart in the source and are kept apart here.

The text below walks through data of US9303009B2, “Migrastatins and uses thereof” (Sloan-Kettering Institute for Cancer Research, priority 2011, dated 2016).

Data set [1] is described as follows: mouse pharmacokinetics, plasma HPLC-MS/MS. The conditions noted are these: for AUC(0-t): 20 mg/kg in 2% GDM-12, read-out: AUC0-24 hr; for half-life: 20 mg/kg in 2% GDM-12, read-out: Half-life (t1/2) (converted). The data set is classed as in vivo, mice (B6D2F1). The protocol:
Groups of mix gender mice (B6D2F1) were used. Pharmacokinetics (PK) were performed on heparinized mouse plasma samples obtained typically at 0 hr, 0.17 hr, 0.5 hr, 0.75 hr, 1 hr, 2 hr, 4 hr, 8 hr, 16 hr and 24 hr after the bolus intravenous or intraperitoneal injections for CME. Samples were analyzed using a HPLC-MS/MS method. To determine the level of CME, the drug was first isolated from plasma with a sample pre-treatment. Acetonitrile were used to remove proteins in samples. An isocratic HPLC-MS/MS method was then used to separate the drugs from any potential interference. Compound levels were measured by MS detection with a multiple reaction monitoring (MRM) mode. PK data was analyzed using the WinNonlin program (ver. 5.3, Pharsight) compartmental model of analysis.
The hashed line is (A: ip) and the solid line is (B:iv) The drug was administered intravenously or intraperitoneally and the dosing strength was 20 mg/kg.

Data set [2] has as its system MDA231BrM2a cells. The data set is described as follows: ex-vivo intra-brain migration assay on brain slices. The data set is classed as cell-based, human. As to conditions: 1 μM or 10 μM; 3 days. An excerpt: After extravasation through the BBB, cancer cells adhere to and migrate on the surface of brain capillaries. Prior to the present disclosure, the permeability of the BBB to cME was unknown. To investigate the ability of cME to inhibit cancer cell migration over capillaries once the cells have infiltrated the brain, we used an ex-vivo intra-brain migration assay. Brain slices from untreated mice were placed in organotypic cultures. Each slice was placed on an inertporous membrane over cell culture medium. MDA231BrM2a cells (3×10^4 cells) were plated on top of the brain slices (FIG. 2, top). After 3 days, the cancer cells had infiltrated the brain tissue mass, migrated towards capillaries (Col. IV in FIG. 2) and migrated on the capillary network of the tissue slice (FIG. 2, bottom). […] In the presence of cME, the cancer cells remained round and on the surface of the brain slice, without migrating towards and over the vascular network (FIG. 2, bottom right).

Data set [3] relates to MDA231BrM2a cells. The data set is described as follows: cancer cell extravasation through the blood-brain barrier after intracardiac injection. The conditions noted are these: 20 mg/kg intraperitoneally at days 0, 3 and 5; sacrificed 7 days after inoculation. The data set is classed as in vivo, mice. On the procedure: MDA231BrM2a is a human breast cancer cell line that is metastatic to the brain (Bos et al 2009). These cells stably express a triple fusion protein (thymidinekinase-GFP-luciferase) that allows detection by bioluminesce, and by immunofluorescence with anti-GFP antibodies. Cells (5×10^5 cells) were inoculated into the bloodstream of immunodeficient mice by intracardiac injection. Carboxymethyl-Migraether (cME) was administered (20 mg/kg, intraperitoneally) at days 0, 3 and 5 after injection. Mice were sacrificed 7 days after inoculation. Brains from these mice were serially sectioned (80 μm sections). Anti-GFP immunofluorescence was performed and the number of GFP(+) cells (events) per brain quantified (FIG. 1). The results establish that extravasation of these cancer cells through the blood-brain barrier (BBB) occurs during the first 7 days after inoculation. Therefore, in the experiment of FIG. 1, cME targets cells during the extravasation step.

The test system of data set [4] is MDA231-LM2 lung metastatic breast cancer cells. Nature of the data set: trans-well cell migration assay, 3 μm pore Boyden chamber. The data set is classed as cell-based. The conditions noted are these: 24 h pre-treatment, 5 h migration. On the procedure:
MDA231-LM2 lung metastatic breast cancer cells were pre-treated with the indicated concentrations of ME or Carboxymethyl-ME for 24 hours. Following the pre-treatment, migration was determined using a Boyden chamber with 3 μm pore size filters. Cells were allowed to migrate for 5 hours through the chamber (in the presence of ME or Carboxymethyl-ME). Cells that traversed the porous membranes were analyzed and scored under a fluorescence microscope. […] The results are expressed as transmigrated cells per optical field. Data are averages of triplicates ±S.D. (See FIG. 6)

The nature of data set [5]: water solubility. The data set is classed as physicochemical. The conditions noted are these: water with 5% methanol, aqueous with cosolvent or surfactant or cyclodextrin; in the presence of 5% methanol.
[6] abbreviates: both sexes, B6D2F1, plasma, ip, 20 mg/kg in 2% GDM-12.
The mark [7] stands for this setting: both sexes, B6D2F1, plasma, iv, 20 mg/kg in 2% GDM-12.

Take `CO[C@H]1/C=C/CCCCCOC/C(C)=C\[C@@H](C)[C@@H]1OCC(=O)O` [CME, Carboxymethyl migraether]: in data set [1] (setting [6]), the AUC(0-inf) – broadly, total exposure, with the tail of the curve extrapolated – came out at 27900 ng·h/mL; the Cmax (usually the maximum level reached in the sampled fluid or tissue) stood at 369 ng/mL; the bioavailability – broadly, the share of a dose that reaches the circulation, judged against a reference dose that is usually intravenous – worked out at 77.8%. Further, in data set [1] (both sexes, B6D2F1, plasma, ip), the AUC(0-t) worked out at 27800 ng·h/mL and the half-life is 2.4 h. In data set [1] (setting [7]), the AUC(0-inf) is 36000 ng·h/mL; the Cmax is 1540 ng/mL; the clearance (in general, a measure of how efficiently the substance is removed, as volume per time) was 9.25 mL/min/kg. In data set [1] (both sexes, B6D2F1, plasma, iv), the AUC(0-t) came to 35700 ng·h/mL and the half-life was 2.9 h. Further, the CL in data set [1] (ip, 20 mg/kg in 2% GDM-12) was determined as 11.96 mL/min/kg. Also, the “migration of cancer cells towards and over the capillary network of the brain slice” value in data set [2] is reported as “strongly inhibited”. In addition, the “reduction in the number of events (GFP(+) cells) per brain” value in data set [3] is reported as “two-fold reduction”. In data set [4], the “potency relative to ME at inhibiting migration” value is on record as “approximately 20 fold”. Besides, the solubility (commonly the dissolved amount per volume that the medium holds) in data set [5] was 200 to 300 µg/mL.
